Reference: patent publication US12077503B2, “Substituted cyclic amides and their use as herbicides” (FMC CORPORATION, priority 2015, dated 2024)

Experiments:
Assay type in all cases: in vivo
[1] = tested on: barnyardgrass (Echinochloa crus-galli); test: Test A preemergence; details: Echinochloa crus-galli, pre-emergence, 240 h, 0 to 100 scale where 0 is no effect and 100 is complete control, read-out: Barnyardgrass plant response rating; for pest or weed control at 31 g/ha: 31 g ai/ha, Preemergence; for pest or weed control at 125 g/ha: 125 g ai/ha, preemergence, visual injury rating, approximately 10 d
Outline: (§1)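 Treatment is preemergence as a directed soil spray after planting, or postemergence at the one- to two-leaf stage, with test chemical in a non-phytotoxic solvent mixture plus surfactant. Plants stay in the greenhouse about 10 d before visual injury scoring on a 0 to 100 scale versus untreated controls.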

[2] = tested on: giant foxtail (Setaria faberii); test: Test A preemergence; details: Setaria faberi, pre-emergence, 240 h, 0 to 100 scale where 0 is no effect and 100 is complete control, read-out: Foxtail, Giant plant response rating; for pest or weed control at 31 g/ha: 31 g ai/ha, Preemergence; for pest or weed control at 125 g/ha: 125 g ai/ha, preemergence, visual injury rating, approximately 10 d
Outline: as §1

[3] = tested on: pigweed (Amaranthus retroflexus); test: Test A preemergence; details: Amaranthus retroflexus, pre-emergence, 240 h, 0 to 100 scale where 0 is no effect and 100 is complete control, read-out: Pigweed plant response rating; for pest or weed control at 31 g/ha: 31 g ai/ha, Preemergence; for pest or weed control at 125 g/ha: 125 g ai/ha, preemergence, visual injury rating, approximately 10 d
[4] = tested on: ryegrass, Italian (Italian ryegrass, Lolium multiflorum); test: Test A preemergence; details: Lolium multiflorum, pre-emergence, 240 h, 0 to 100 scale where 0 is no effect and 100 is complete control, read-out: Ryegrass, Italian plant response rating; for pest or weed control at 31 g/ha: 31 g ai/ha, Preemergence; for pest or weed control at 125 g/ha: 125 g ai/ha, preemergence, visual injury rating, approximately 10 d
Outline: as §1

Kochia (Kochia scoparia) [5] = test: Test A preemergence; details: Bassia scoparia, pre-emergence, 240 h, 0 to 100 scale where 0 is no effect and 100 is complete control, read-out: Kochia plant response rating; for pest or weed control at 31 g/ha: 31 g ai/ha, Preemergence; for pest or weed control at 125 g/ha: 125 g ai/ha, preemergence, visual injury rating, approximately 10 d
Outline: as §1

[6] = tested on: ragweed (common ragweed, Ambrosia elatior); test: Test A preemergence; details: Ambrosia artemisiifolia, pre-emergence, 240 h, 0 to 100 scale where 0 is no effect and 100 is complete control, read-out: Ragweed plant response rating; for pest or weed control at 31 g/ha: 31 g ai/ha, Preemergence; for pest or weed control at 125 g/ha: 125 g ai/ha, preemergence, visual injury rating, approximately 10 d
Outline: as §1

[7] = tested on: barnyardgrass (Echinochloa crus-galli); test: Test A postemergence; details: Echinochloa crus-galli, post-emergence, 240 h, Postemergence; for pest or weed control at 125 g/ha: 125 g ai/ha, visual rating about 10 d after treatment, read-out: Barnyardgrass plant response rating (0 to 100 scale, 0 no effect, 100 complete control); for pest or weed control at 31 g/ha: 31 g ai/ha, 0 is no effect, 100 is complete control, read-out: Barnyardgrass plant response rating (0 to 100 scale)
Outline: as §1

corn (Zea mays) = test: Test A postemergence; details: Zea mays, post-emergence, 240 h, Postemergence, read-out: Corn plant response rating (0 to 100 scale); for plant injury at 125 g/ha: 125 g ai/ha, visual rating about 10 d after treatment; for plant injury at 31 g/ha: 31 g ai/ha, 0 is no effect, 100 is complete control
Outline: as §1

[8] = tested on: giant foxtail (Setaria faberii); test: Test A postemergence; details: Setaria faberi, post-emergence, 240 h, Postemergence, read-out: Foxtail, Giant plant response rating (0 to 100 scale); for pest or weed control at 125 g/ha: 125 g ai/ha, visual rating about 10 d after treatment; for pest or weed control at 31 g/ha: 31 g ai/ha, 0 is no effect, 100 is complete control
Outline: as §1

[9] = tested on: pigweed (Amaranthus retroflexus); test: Test A postemergence; details: Amaranthus retroflexus, post-emergence, 240 h, Postemergence, read-out: Pigweed plant response rating (0 to 100 scale); for pest or weed control at 125 g/ha: 125 g ai/ha, visual rating about 10 d after treatment; for pest or weed control at 31 g/ha: 31 g ai/ha, 0 is no effect, 100 is complete control
Outline: as §1

[10] = tested on: wheat (Triticum aestivum); test: Test A postemergence; details: Triticum aestivum, post-emergence, 240 h, Postemergence, read-out: Wheat plant response rating (0 to 100 scale); for plant injury at 125 g/ha: 125 g ai/ha, visual rating about 10 d after treatment; for plant injury at 31 g/ha: 31 g ai/ha, 0 is no effect, 100 is complete control
Outline: as §1

[11] = tested on: ryegrass, Italian (Italian ryegrass, Lolium multiflorum); test: Test A postemergence; details: Lolium multiflorum, post-emergence, 240 h, Postemergence, read-out: Ryegrass, Italian plant response rating (0 to 100 scale); for pest or weed control at 125 g/ha: 125 g ai/ha, visual rating about 10 d after treatment; for pest or weed control at 31 g/ha: 31 g ai/ha, 0 is no effect, 100 is complete control
Outline: as §1

Kochia (Kochia scoparia) [12] = test: Test A postemergence; details: Bassia scoparia, post-emergence, 240 h, Postemergence, read-out: Kochia plant response rating (0 to 100 scale); for pest or weed control at 125 g/ha: 125 g ai/ha, visual rating about 10 d after treatment; for pest or weed control at 31 g/ha: 31 g ai/ha, 0 is no effect, 100 is complete control
Outline: as §1

[13] = tested on: ragweed (common ragweed, Ambrosia elatior); test: Test A postemergence; details: Ambrosia artemisiifolia, post-emergence, 240 h, Postemergence, read-out: Ragweed plant response rating (0 to 100 scale); for pest or weed control at 125 g/ha: 125 g ai/ha, visual rating about 10 d after treatment; for pest or weed control at 31 g/ha: 31 g ai/ha, 0 is no effect, 100 is complete control
Outline: as §1

[14] = tested on: blackgrass (Alopecurus myosuroides); test: Test A postemergence; details: Alopecurus myosuroides, post-emergence, 240 h, Postemergence, read-out: Blackgrass plant response rating (0 to 100 scale); for pest or weed control at 125 g/ha: 125 g ai/ha, visual rating about 10 d after treatment; for pest or weed control at 31 g/ha: 31 g ai/ha, 0 is no effect, 100 is complete control
Outline: as §1

[15] = tested on: Galium (catchweed bedstraw, Galium aparine); test: Test A postemergence; details: Galium, post-emergence, 240 h, Postemergence, read-out: Galium plant response rating (0 to 100 scale); for pest or weed control at 125 g/ha: 125 g ai/ha, visual rating about 10 d after treatment; for pest or weed control at 31 g/ha: 31 g ai/ha, 0 is no effect, 100 is complete control
Outline: as §1

[16] = tested on: barnyardgrass (Echinochloa crus-galli); test: Test B flooded paddy test; details: Echinochloa crus-galli, 250 g ai/ha, Flood; 0 to 100 scale where 0 is no effect and 100 is complete control; read-out: Barnyardgrass plant response rating
Outline: (§2)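 Response scored visually against untreated controls, 0 = no effect and 100 = complete control, 13–15 d after treatment in the greenhouse. Compounds added to paddy water held 3 cm above soil surface. Treatment given at 2-leaf stage.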

[17] = tested on: ducksalad (Heteranthera limosa); test: Test B flooded paddy test; details: Heteranthera limosa, 250 g ai/ha, Flood; 0 to 100 scale where 0 is no effect and 100 is complete control; read-out: Ducksalad plant response rating
Outline: as §2

rice (Oryra sativa) = test: Test B flooded paddy test; details: Oryza sativa, 250 g ai/ha, Flood; 0 to 100 scale where 0 is no effect and 100 is complete control; read-out: Rice plant response rating
Outline: as §2

[18] = tested on: sedge, umbrella (small-flower umbrella sedge, Cyperus difformis); test: Test B flooded paddy test; details: Cyperus difformis, 250 g ai/ha, Flood; 0 to 100 scale where 0 is no effect and 100 is complete control; read-out: Sedge, Umbrella plant response rating
Outline: as §2

Compound | pest or weed control at 31 g/ha [1] [%] | pest or weed control at 125 g/ha [1] [%] | pest or weed control at 31 g/ha [2] [%] | pest or weed control at 125 g/ha [2] [%] | pest or weed control at 31 g/ha [3] [%] | pest or weed control at 125 g/ha [3] [%] | pest or weed control at 31 g/ha [4] [%] | pest or weed control at 125 g/ha [4] [%] | pest or weed control at 31 g/ha (Kochia (Kochia scoparia) [5]) [%] | pest or weed control at 125 g/ha (Kochia (Kochia scoparia) [5]) [%] | pest or weed control at 31 g/ha [6] [%] | pest or weed control at 125 g/ha [6] [%] | pest or weed control at 125 g/ha [7] [%] | pest or weed control at 31 g/ha [7] [%] | plant injury at 125 g/ha (corn (Zea mays)) [%] | plant injury at 31 g/ha (corn (Zea mays)) [%] | pest or weed control at 125 g/ha [8] [%] | pest or weed control at 31 g/ha [8] [%] | pest or weed control at 125 g/ha [9] [%] | pest or weed control at 31 g/ha [9] [%] | also measured
CN1C[C@H](c2cc(Cl)cc(Cl)c2)[C@@H](C(=O)Nc2ccccc2F)C1=O [Compound 1269] | 70 | 90 | 90 | 90 | 0 | 0 | 0 | 30 | 0 | 50 | 0 | 0 | 90 | 90 | 80 | 0 | 80 | 60 | 30 | 0 | plant injury at 125 g/ha [10]: 60%; plant injury at 31 g/ha [10]: 0%; pest or weed control at 125 g/ha [11]: 30%; pest or weed control at 31 g/ha [11]: 0%; pest or weed control at 125 g/ha (Kochia (Kochia scoparia) [12]): 40%; pest or weed control at 31 g/ha (Kochia (Kochia scoparia) [12]): 0%; pest or weed control at 125 g/ha [13]: 0%; pest or weed control at 31 g/ha [13]: 0%; pest or weed control at 125 g/ha [14]: 40%; pest or weed control at 31 g/ha [14]: 0%; pest or weed control at 125 g/ha [15]: 60%; pest or weed control at 31 g/ha [15]: 0%; pest or weed control at 250 g/ha [16]: 60%; pest or weed control at 250 g/ha [17]: 90%; pest or weed control at 250 g/ha (rice (Oryra sativa)): 0%; pest or weed control at 250 g/ha [18]: 0%
Cc1c(F)cccc1NC(=O)[C@H]1C(=O)N(C)C[C@@H]1c1ccc2c(c1)C(F)(F)C(F)(F)O2 [Compound 1272] | 90 | 90 | 90 | 90 | 0 | 0 | 20 | 60 | 0 | 20 | 0 | 0 | 70 | 40 | 50 | 0 | 80 | 50 | 0 | 0 | plant injury at 125 g/ha [10]: 50%; plant injury at 31 g/ha [10]: 20%; pest or weed control at 125 g/ha [11]: 30%; pest or weed control at 31 g/ha [11]: 20%; pest or weed control at 125 g/ha (Kochia (Kochia scoparia) [12]): 20%; pest or weed control at 31 g/ha (Kochia (Kochia scoparia) [12]): 0%; pest or weed control at 125 g/ha [13]: 0%; pest or weed control at 31 g/ha [13]: 0%; pest or weed control at 125 g/ha [14]: 40%; pest or weed control at 31 g/ha [14]: 20%; pest or weed control at 125 g/ha [15]: 60%; pest or weed control at 31 g/ha [15]: 50%; pest or weed control at 250 g/ha [16]: 50%; pest or weed control at 250 g/ha [17]: 80%; pest or weed control at 250 g/ha (rice (Oryra sativa)): 20%; pest or weed control at 250 g/ha [18]: 0%
